One test concerns the target T1, full-length SHP2 (Homo sapiens, UniProt Q06124).
T1 construct: 1 nM full-length SHP2 (His6-tagged SHP2(2-527), recombinantly expressed in E. coli and purified in-house); His6; made in house; host or cells: E. coli
T1 sequence (Q06124 2-527): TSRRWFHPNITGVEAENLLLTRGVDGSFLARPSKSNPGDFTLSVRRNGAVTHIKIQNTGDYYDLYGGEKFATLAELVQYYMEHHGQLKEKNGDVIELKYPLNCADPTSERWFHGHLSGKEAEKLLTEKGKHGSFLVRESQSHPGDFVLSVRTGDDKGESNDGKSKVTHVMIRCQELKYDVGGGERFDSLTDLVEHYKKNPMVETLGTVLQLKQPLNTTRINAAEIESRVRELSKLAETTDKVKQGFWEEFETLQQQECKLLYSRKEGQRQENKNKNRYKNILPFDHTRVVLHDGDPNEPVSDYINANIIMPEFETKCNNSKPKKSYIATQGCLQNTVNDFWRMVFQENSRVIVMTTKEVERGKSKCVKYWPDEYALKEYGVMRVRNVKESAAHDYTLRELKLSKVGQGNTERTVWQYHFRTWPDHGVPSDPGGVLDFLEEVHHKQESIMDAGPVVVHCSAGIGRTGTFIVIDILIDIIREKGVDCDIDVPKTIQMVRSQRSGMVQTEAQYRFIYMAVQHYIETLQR
As to the kind of experiment: SHP2 enzymatic assay (fluorescence intensity kinetic assay, DiFMUP hydrolysis). It counts as biochemical. As to conditions: 1 nM His6-tagged SHP2(2-527), 1 μM activating peptide, 50 μM DiFMUP; single assay or mean of multiple assays; read-out: Biological Example 1 IC50. The procedure:
A fluorescence intensity kinetic assay was configured for full-length SHP2 that monitors the amount of 6,8-difluoro-7-hydroxy-4-methylcoumarin (“DiFMU”) formed upon hydrolysis of 6,8-difluoro-4-methylumbelliferyl phosphate (“DiFMUP”) by SHP2. […] Low control wells lacked enzyme. The assays were initiated by the addition of a mixture of SHP2 and the activating peptide, and following a 15 second mix on an orbital shaker, were read in kinetic mode for 15 minutes (30 seconds/cycle) at ambient temperature on a PerkinElmer EnVision microplate reader (kEx=355 nm, kEm=460 nm). Initial velocities (slopes of the tangents at t=0) were estimated from exponential fits to the slightly nonlinear progress curves and then were converted to percent of control (“POC”) using the following equation:
[formula] • Where: xmax Average Uninhibited Controls • Xmin Average Background A 4-parameter logistic model was the fit to the POC data for each compound. From that fit, the IC50 was estimated and is defined as the concentration of compound at which the curve crosses 50 POC.

In test [1] the test system is ERK1/2 (Thr202/Tyr204) phosphorylation in KYSE520 cells. The test is described as follows: Cellular Phospho-p44/42 MAPK (Erk1/2) (Thr202/Tyr204) assay, In-Cell Western. The settings on record: Homo sapiens, KYSE-520; KYSE520 cells, 1 hour incubation, pERK signal normalized to GAPDH; single assay or mean of multiple assays; read-out: Biological Example 2 IC50. The format is cell-based. On the procedure:
Inhibition of ERK1/2 (Thr202/Tyr204) phosphorylation was determined by the following cellular assay, which comprises incubating cells with a compound for 1 hour and quantifying pERK signal by In-Cell Western on fixed cells and normalizing to GAPDH signal. KYSE520 cells were obtained from DSMZ and grown in RPMI supplemented with 10% fetal bovine serum, penicillin/streptomycin, 2 mM L-alanyl-L-glutamine dipeptide in 0.85% NaCl (Glutamax™), non-essential amino acids, and sodium pyruvate. Cells were plated in 96-well plates at 30,000 cells/well and allowed to attach overnight at 37° C./5% CO2. Cells were treated with compounds prepared as a 10-point, 1:3 dilution series (range: 20 μM-1 nM), with a final DMSO concentration of 0.5%. After 1 hour incubation, cells were fixed in 3.7% formaldehyde in Dulbecco's phosphate-buffered saline (“dPBS”) at room temperature for 20 minutes. Cells were then washed with dPBS and permeabilized in 100% MeOH at room temperature for 10 minutes. Following permeabilization, cells were washed in dPBS and incubated in LI-COR Blocking Buffer (LI-COR Biosciences, Cat #927-40000) for 1 hour or longer. Plates were then incubated with an antibody specific for the MEK-dependent ERK1/2 phosphorylation sites, threonine 202 and tyrosine 204 (Cell Signaling Technologies; Cat #9101), downstream of SHP2 in the MAP kinase signal transduction pathway, as well as GAPDH (Millipore; Cat #MAB374). pErk1/2 (Thr202/Tyr204) antibody was diluted in LI-COR blocking buffer containing 0.05% polysorbate-20 (Tween-20) at 1:250; GAPDH was diluted at 1:2,500. The plates were incubated overnight at 4° C. After washing with PBS/0.05% Tween-20, the cells were incubated with fluorescently-labeled secondary antibodies (Anti-rabbit-Alexa Flour680, Invitrogen Cat #A21109; Anti-mouse-IRDye800CW, Li-cor Bioscieces Cat #926-32210, both at 1:1000 dilution) for 1 hour. Cells were then washed, as above, and analyzed for fluorescence at both 680 nm and 800 nm wavelengths using the Aerius Infrared Imaging System (LI-COR Biosciences, Model 9250). Phosphorylated Erk1/2 ([…]) signal was normalized to GAPDH signal for each well. IC50 values were calculated from the normalized values using a 4-parameter fit in BioAssay software. The reported IC50 in Table 2 may be from a single assay or the mean of multiple assays.

By IC50 is commonly meant the concentration at which inhibition is half-maximal.

The structures appear in SMILES notation. Where a name gives a salt, the structure may show the parent alone.

`C[C@@H]1OCC2(CCN(c3ncc(Sc4ccnc5[nH]ccc45)nn3)CC2)[C@@H]1N` [Example 8, (3S,4S)-8-(6-((1H-pyrrolo[2,3-6]pyridin-4-yl)thio)-1,2,4-triazin-3-yl)-3-methyl-2-oxa-8-azaspiro[4.5]decan-4-amine]: the IC50 was determined as 69 nM on full-length SHP2 and 48 nM in test [1].
The corresponding values for `C[C@@H]1OCC2(CCN(c3ncc(Sc4c(Cl)cnc5[nH]ccc45)nn3)CC2)[C@@H]1N` [Example 9, (3S,4S)-8-(6-((5-chloro-1H-pyrrolo[2,3-b]pyridin-4-yl)thio)-1,2,4-triazin-3-yl)-3-methyl-2-oxa-8-azaspiro[4.5]decan-4-amine] are 358 nM and 699 nM.
The corresponding values for `CC1(N)CCCN(c2ncc(Sc3ccnc(N)c3Cl)nn2)CC1` (centres unmarked) [Example 10, 1-(6-((2-amino-3-chloropyridin-4-yl)thio)-1,2,4-triazin-3-yl)-4-methylazepan-4-amine] are 551 nM and 687 nM.
On to `CC1(N)CCCN(c2ncc(Sc3cccc(Cl)c3Cl)nn2)CC1` (centres unmarked) [Example 11, 1-(6-((2,3-dichlorophenyl)thio)-1,2,4-triazin-3-yl)-4-methylazepan-4-amine], for which the values for the IC50 (at full-length SHP2; in test [1]) were 210 nM and 1970 nM, respectively.
For the molecule `NC1C[C@@H]2CC[C@@H](C1)N2c1ncc(Sc2cccc(Cl)c2Cl)nn1` (stereo partly drawn) [Example 12, (1R,3s,5S)-8-(6-((2,3-dichlorophenyl)thio)-1,2,4-triazin-3-yl)-8-azabicyclo[3.2.1]octan-3-amine], the IC50 at full-length SHP2 turned out to be 174 nM; in test [1], 1110 nM.
For `Cc1nc(N2CCC3(CC2)CO[C@@H](C)[C@H]3N)nnc1Sc1cccc(Cl)c1Cl` [Example 13, (3S,4S)-8-(6-((2,3-dichlorophenyl)thio)-5-methyl-1,2,4-triazin-3-yl)-3-methyl-2-oxa-8-azaspiro[4.5]decan-4-amine], in that order: 141 nM and 1030 nM.
For `Cc1nccc(Sc2cnc(N3CCC4(CC3)CO[C@@H](C)[C@H]4N)nn2)c1Cl` [Example 14, (3S,4S)-8-(6-((3-chloro-2-methylpyridin-4-yl)thio)-1,2,4-triazin-3-yl)-3-methyl-2-oxa-8-azaspiro[4.5]decan-4-amine], in that order: 53 nM and 61 nM.
The corresponding values for `Nc1nccc(Sc2cnc(N3CCC4(CC3)Cc3ncccc3[C@@H]4N)nn2)c1Cl` [Example 16, (R)-1′-(6-((2-amino-3-chloropyridin-4-yl)thio)-1,2,4-triazin-3-yl)-5,7-dihydrospiro[cyclopenta[b]pyridine-6,4′-piperidin]-5-amine trihydrochloride] are 175 nM and 49 nM.
Regarding `Nc1nccc(Sc2cnc(N3CCC4(CC3)Cc3cc(Cl)ccc3[C@H]4N)nn2)c1Cl` [Example 17, (S)-1′-(6-((2-amino-3-chloropyridin-4-yl)thio)-1,2,4-triazin-3-yl)-5-chloro-1,3-dihydrospiro[indene-2,4′-piperidin]-1-amine], the IC50 is 25 nM on full-length SHP2 and 9 nM in test [1].
For `Nc1cc(Sc2cnc(N3CCC4(CC3)Cc3ccccc3[C@H]4N)nn2)c(Cl)cn1` [Example 18, (S)-1′-(6-((2-amino-5-chloropyridin-4-yl)thio)-1,2,4-triazin-3-yl)-1,3-dihydrospiro[indene-2,4′-piperidin]-1-amine], in that order: 15 nM and 8 nM.
The corresponding values for `Nc1nccc(Sc2cnc(N3CCC4(CC3)Cc3ccccc3[C@H]4N)nn2)c1C1CC1` [Example 19, (S)-1′-(6-((2-amino-3-cyclopropylpyridin-4-yl)thio)-1,2,4-triazin-3-yl)-1,3-dihydrospiro[indene-2,4′-piperidin]-1-amine] are 44 nM and 208 nM.
For `Nc1ccc(Oc2cnc(N3CCC4(CC3)Cc3ccccc3[C@H]4N)nn2)cn1` [Example 22, (S)-1′-(6-((6-aminopyridin-3-yl)oxy)-1,2,4-triazin-3-yl)-1,3-dihydrospiro[indene-2,4′-piperidin]-1-amine], in that order: 32 nM and 17 nM.
On to `Nc1nccc(Sc2cnc(N3CCC4(CC3)Oc3ccccc3[C@H]4N)nn2)c1Cl` [Example 23, (R)-1′-(6-((2-amino-3-chloropyridin-4-yl)thio)-1,2,4-triazin-3-yl)-3H-spiro[benzofuran-2,4′-piperidin]-3-amine], for which the IC50 on full-length SHP2 turned out to be 35 nM; in test [1], 12 nM.
On to `Nc1nccc(Sc2cnc(N3CCC4(CC3)Cc3ncccc3[C@H]4N)nn2)c1Cl` [Example 24, (S)-1′-(6-((2-amino-3-chloropyridin-4-yl)thio)-1,2,4-triazin-3-yl)-5,7-dihydrospiro[cyclopenta[b]pyridine-6,4′-piperidin]-5-amine], for which the values for the IC50 (on full-length SHP2; in test [1]) were 47 nM and 5 nM, respectively.
For `N[C@@H]1c2ccccc2CC12CCN(c1ncc(Sc3ccnc4c3C(F)(F)C(=O)N4)nn1)CC2` [Example 25, (S)-4-((3-(1-amino-1,3-dihydrospiro[indene-2,4′-piperidin]-1′-yl)-1,2,4-triazin-6-yl)thio)-3,3-difluoro-1,3-dihydro-2H-pyrrolo[2,3-b]pyridin-2-one], in that order: 26 nM and 2 nM.
With `N[C@@H]1c2ccccc2CC12CCN(c1ncc(Sc3c[nH]c4ncccc34)nn1)CC2` [Example 26, (S)-1′-(6-((1H-pyrrolo[2,3-b]pyridin-3-yl)thio)-1,2,4-triazin-3-yl)-1,3-dihydrospiro[indene-2,4′-piperidin]-1-amine], the figures for the half-maximal inhibitory concentration (IC50) (at full-length SHP2; in test [1]) were 49 nM and 120 nM, respectively.
For `N[C@@H]1c2ccccc2CC12CCN(c1ncc(Sc3n[nH]c4ncccc34)nn1)CC2` [Example 27, (S)-1′-(6-((1H-pyrazolo[3,4-b]pyridin-3-yl)thio)-1,2,4-triazin-3-yl)-1,3-dihydrospiro[indene-2,4′-piperidin]-1-amine], in that order: 17 nM and 11 nM.
The corresponding values for `N[C@@H]1c2ccccc2CC12CCN(c1ncc(Oc3cccc4cnccc34)nn1)CC2` [Example 28, (S)-1′-(6-(isoquinolin-5-yloxy)-1,2,4-triazin-3-yl)-1,3-dihydrospiro[indene-2,4′-piperidin]-1-amine] are 879 nM and 1140 nM.
For `C[C@@H]1OCC2(CCN(c3ncc(Sc4ccnc5c4ccn5C)nn3)CC2)[C@@H]1N` [Example 29, (3S,4S)-3-methyl-8-(6-((1-methyl-1H-pyrrolo[2,3-b]pyridin-4-yl)thio)-1,2,4-triazin-3-yl)-2-oxa-8-azaspiro[4.5]decan-4-amine], in that order: 96 nM and 206 nM.

Values taken from patent US11634417B2 (Array BioPharma Inc., priority 2019, dated 2023).
